Measured values from paper PMC11492426, “Design, synthesis, and biological evaluation of novel quinoline-based EGFR/HER-2 dual-target inhibitors as potential anti-tumor agents” (RSC Advances, 2024).

Legend:
Bax = Bax activation assay in MCF-7 cells; type: cell-based, human; conditions: for Bax Conc.: treated at IC50 values; for Bax Fold change: versus untreated control
Description: This lysate was diluted in Standard Diluent Buffer over the range of the assay and measured for human active caspase-8 content. (Cells are Plated in a density of 1.2 – 1.8 × 10,000 cells/well in a volume of 100µl complete growth medium + 100 ul of the tested compound per well in a 96-well plate for 24 hours before the enzyme assay for […].). […]
4.2.7. Bax activation assay
Bring all reagents, except the human Bax-α Standard, to room temperature for at least 30 minutes prior to opening. The human Bax-α Standard solution should not be left at room temperature for more than 10 minutes. All standards, controls and samples should be run in duplicate. Refer to the Assay Layout Sheet to determine the number of wells to be used and put any remaining wells with the desiccant back into the pouch and seal the ziploc. Store unused wells at 4 °C. Pipet 100 μL of Assay Buffer into the S0 (0 pg/mL standard) wells. Pipet 100 μL of Standards #1 through #6 into the appropriate wells. Pipet 100 μL of the Samples into the appropriate wells. Tap the plate gently to mix the contents. Seal the plate and incubate at room temperature on a plate shaker for 1 hour at ~500 rpm. Empty the contents of the wells and wash by adding 400 μL of wash solution to every well.
Repeat the wash 4 more times for a total of 5 washes. After the final wash, empty or aspirate the wells and firmly tap the plate on a lint free paper towel to remove any remaining wash buffer. Pipet 100 μL of yellow Antibody into each well, except the Blank. Seal the plate and incubate at room temperature on a plate shaker for 1 hour at ~500 rpm. Empty the contents of the wells and wash by adding 400 μL of wash solution to every well. Repeat the wash 4 more times for a total of 5 washes.
After the final wash, empty or aspirate the wells and firmly tap the plate on a lint free paper towel to remove any remaining wash buffer. Add 100 μL of blue Conjugate to each well, except the Blank.
Seal the plate and incubate at room temperature on a plate shaker for 30 minutes at ~500 rpm. Empty the contents of the wells and wash by adding 400 μL of wash solution to every well. Repeat the wash 4 more times for a total of 5 washes. After the final wash, empty or aspirate the wells and firmly tap […]
the plate on a lint free paper towel to remove any remaining wash buffer. Pipet 100 μL of Substrate Solution into each well. Incubate for 30 minutes at room temperature on a plate shaker at ~500 rpm.
Pipet 100 μL Stop Solution to each well. Blank the plate reader against the Blank wells, read the optical density at 450 nm. Calculate the average net Optical Density (OD) bound for each standard and sample by subtracting the average Blank OD from the average OD for each standard and sample.
Using linear graph paper, plot the Average Net OD for each standard versus Bax concentration in each standard. Approximate a straight line through the points. The concentration of Bax in the unknowns can be determined by interpolation. […]
Remove plate cover and empty the wells. […]
Incubate the microwell strips at room temperature (18° to 25°C) for about 15 minutes, if

Row | Structure (SMILES) | Bax Conc. (Bax) [pg/mL] | Bax Fold change (Bax) | melting point [°C]
1 | O=c1[nH]c2ccccc2c(O)c1/C=N/c1nc(-c2ccncc2)n[nH]1 [Compound 3e, (E)-4-hydroxy-3-(((3-(pyridin-4-yl)-1H-1,2,4-triazol-5-yl)imino)methyl)quinolin-2(1H)-one] | 316 ± 3 | 35 | 327 to 329
2 | O=c1[nH]c2ccccc2c(O)c1C=Nc1ccc(NS(=O)(=O)c2ncccn2)cc1 [Compound 5a, N-(4-(((4-hydroxy-2-oxo-1,2-dihydroquinolin-3-yl)methylene)amino)phenyl) pyrimidine-2-sulfonamide] | 350 ± 3 | 39 | –
